Where “and” joins values, the source holds several entries; their conditions need not be identical. Equal values may be shown once. Inconclusive results and toxic doses are left out. Cut-off read from the data, not from the text of the source: active = T/C of 150% or more; inactive = T/C below 125%.
Test system: L1210 leukemia ip in BDF1 mice, survival T/C
Experiment: NCI In Vivo Anticancer Drug Screen. Data for tumor model L1210 Leukemia (intraperitoneal) in B6D2F1 (BDF1) mice
Conditions: endpoint: mean survival time, higher = longer survival
Summary of the method: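 Survival endpoint. Drug-treated group vs vehicle group, expressed as T divided by C. Tumor passaged by transplantation.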

[1] = dose: 5.0 mg/kg/injection, schedule: Q01DX001 (ip), vehicle: saline
[2] = dose: 10.0 mg/kg/injection, schedule: Q01DX001 (ip), vehicle: saline
[3] = dose: 20.0 mg/kg/injection, schedule: Q01DX001 (ip), vehicle: saline
[4] = dose: 40.0 mg/kg/injection, schedule: Q01DX001 (ip), vehicle: saline
[5] = dose: 100.0 mg/kg/injection, schedule: Q01DX009 (ip), vehicle: Klucel (hydroxypropylcellulose) (HPC)
[6] = dose: 200.0 mg/kg/injection, schedule: Q01DX009 (ip), vehicle: Klucel (hydroxypropylcellulose) (HPC)
[7] = dose: 400.0 mg/kg/injection, schedule: Q01DX009 (ip), vehicle: Klucel (hydroxypropylcellulose) (HPC)
[8] = dose: 50.0 mg/kg/injection, schedule: Q01DX009 (ip), vehicle: saline
[9] = dose: 100.0 mg/kg/injection, schedule: Q01DX009 (ip), vehicle: saline with Tween-80
[10] = dose: 100.0 mg/kg/injection, schedule: Q04DX003 (ip), vehicle: saline
[11] = dose: 200.0 mg/kg/injection, schedule: Q01DX009 (ip), vehicle: saline with Tween-80
[12] = dose: 200.0 mg/kg/injection, schedule: Q04DX003 (ip), vehicle: saline
[13] = dose: 400.0 mg/kg/injection, schedule: Q01DX009 (ip), vehicle: saline with Tween-80
[14] = dose: 400.0 mg/kg/injection, schedule: Q04DX003 (ip), vehicle: saline
[15] = dose: 100.0 mg/kg/injection, schedule: Q01DX001 (ip), vehicle: saline
[16] = dose: 100.0 mg/kg/injection, schedule: Q01DX009 (ip), vehicle: saline
[17] = dose: 200.0 mg/kg/injection, schedule: Q01DX009 (ip), vehicle: saline
[18] = dose: 400.0 mg/kg/injection, schedule: Q01DX009 (ip), vehicle: saline
[19] = dose: 100.0 mg/kg/injection, schedule: Q04DX003 (ip), vehicle: saline with Tween-80

Measured: T/C

OCCCN=Cc1ccccc1O.[Co]
inactive: [1] 100 % of control | [2] 94 % of control | [3] 100 % of control | [4] 102 % of control | dose: 80.0 mg/kg/injection, schedule: Q01DX001 (ip), vehicle: saline 105 % of control

C#C/C(=N\Nc1ccc([N+](=O)[O-])cc1[N+](=O)[O-])c1ccccc1
inactive: dose: 75.0 mg/kg/injection, schedule: Q04DX002 (ip), vehicle: saline with Tween-80 91 % of control | dose: 150.0 mg/kg/injection, schedule: Q04DX002 (ip), vehicle: saline with Tween-80 102 % of control | dose: 300.0 mg/kg/injection, schedule: Q04DX002 (ip), vehicle: saline with Tween-80 88 % of control

CCCCC(C(C)=O)C(C)C (stereo not given)
inactive: [5] 94 % of control | dose: 100.0 mg/kg/injection, schedule: Q04DX003 (ip), vehicle: Klucel (hydroxypropylcellulose) (HPC) 100 % of control | [6] 91 % of control | dose: 200.0 mg/kg/injection, schedule: Q04DX003 (ip), vehicle: Klucel (hydroxypropylcellulose) (HPC) 96 % of control | [7] 95 % of control | dose: 400.0 mg/kg/injection, schedule: Q04DX003 (ip), vehicle: Klucel (hydroxypropylcellulose) (HPC) 92 % of control

CCOC(=O)C1=C(C)NC(=O)NN1C(=O)OCC
inactive: [8] 113 % of control

Cc1cccc(Cl)c1NC(=O)Nc1ccc(CCO)cc1
inactive: [5] 103 % of control | [6] 97 % of control | [7] 94 % of control

CN(C)C1C=CS(=O)(=O)C1 (stereo not given)
inactive: dose: 100.0 mg/kg/injection, schedule: Q01DX001 (ip), vehicle: Klucel (hydroxypropylcellulose) (HPC) 106 % of control | dose: 200.0 mg/kg/injection, schedule: Q01DX001 (ip), vehicle: Klucel (hydroxypropylcellulose) (HPC) 106 % of control

O=C1CC(NC(=O)OCc2ccccc2)C(=O)O1 (stereo not given)
inactive: [9] 96 % of control | [10] 103 % of control | [11] 93 % of control | [12] 97 % of control | [13] 94 % of control | [14] 95 % of control

O=S(=O)(Nc1ccc2ccccc2c1)c1ccccc1
inactive: dose: 100.0 mg/kg/injection, schedule: Q01DX001 (ip), vehicle: saline with Tween-80 103 % of control | dose: 200.0 mg/kg/injection, schedule: Q01DX001 (ip), vehicle: saline with Tween-80 97 % of control | dose: 400.0 mg/kg/injection, schedule: Q01DX001 (ip), vehicle: saline with Tween-80 97 % of control

CCCCCc1cc[n+](CC(O)c2ccccc2)cc1 (stereo not given)
inactive: [15] 94 % of control

CN(C)C1c2cc(Cl)ccc2-c2c(Cl)cc(Cl)cc21 (stereo not given)
inactive: dose: 50.0 mg/kg/injection, schedule: Q01DX001 (ip), vehicle: carboxymethylcellulose (CMC) 100 % of control | dose: 100.0 mg/kg/injection, schedule: Q01DX001 (ip), vehicle: carboxymethylcellulose (CMC) 102 % of control | dose: 200.0 mg/kg/injection, schedule: Q01DX001 (ip), vehicle: carboxymethylcellulose (CMC) 100 % of control | dose: 400.0 mg/kg/injection, schedule: Q01DX001 (ip), vehicle: carboxymethylcellulose (CMC) 105 % of control

O=C1NC(=O)C2(CCCc3ccccc32)N1 (stereo not given)
inactive: dose: 25.0 mg/kg/injection, schedule: Q04DX002 (ip), vehicle: Klucel (hydroxypropylcellulose) (HPC) 110 % of control | dose: 50.0 mg/kg/injection, schedule: Q04DX002 (ip), vehicle: Klucel (hydroxypropylcellulose) (HPC) 104 % of control | dose: 100.0 mg/kg/injection, schedule: Q04DX002 (ip), vehicle: Klucel (hydroxypropylcellulose) (HPC) 100 % of control

CN(C)c1ccc([PH+](c2ccc(N(C)C)cc2)c2ccc(N(C)C)cc2)cc1.CN(C)c1ccc([PH+](c2ccc(N(C)C)cc2)c2ccc(N(C)C)cc2)cc1.[Cl][Hg][Cl]
inactive: dose: 50.0 mg/kg/injection, schedule: Q01DX009 (ip), vehicle: Klucel (hydroxypropylcellulose) (HPC) 94 % of control | [5] 90 % of control | [6] 90 % of control

CCOC(=O)C(=CNc1cnc(SC)[nH]c1=O)C(=O)OCC
inactive: [10] 91 % of control | [12] 93 % of control | [14] 89 % of control

COc1ccc(SC(=O)Nc2cc([N+](=O)[O-])ccc2Cl)cc1
inactive: dose: 25.0 mg/kg/injection, schedule: Q01DX009 (ip), vehicle: saline with Tween-80 89 % of control | dose: 50.0 mg/kg/injection, schedule: Q01DX009 (ip), vehicle: saline with Tween-80 89 % of control

CCc1ccccc1NC(=O)Oc1cccc(C(F)(F)F)c1
inactive: [16] 104 % of control | [17] 94 % of control | [18] 103 % of control

C/C=C(\CC)C(=O)O.[Pb]
inactive: dose: 50.0 mg/kg/injection, schedule: Q04DX002 (ip), vehicle: saline with Tween-80 97 % of control | dose: 100.0 mg/kg/injection, schedule: Q04DX002 (ip), vehicle: saline with Tween-80 96 % of control and 119 % of control | dose: 200.0 mg/kg/injection, schedule: Q04DX002 (ip), vehicle: saline with Tween-80 100 % of control | dose: 400.0 mg/kg/injection, schedule: Q04DX002 (ip), vehicle: saline with Tween-80 92 % of control

C=CC1OC2OC(C)(C)OC2C1O (stereo not given)
inactive: [1] 91 % of control | [2] 98 % of control | dose: 18.7 mg/kg/injection, schedule: Q01DX001 (ip), vehicle: steriod suspending solution 108 % of control | [3] 93 % of control | dose: 37.5 mg/kg/injection, schedule: Q01DX001 (ip), vehicle: steriod suspending solution 103 % of control | [4] 96 % of control | dose: 75.0 mg/kg/injection, schedule: Q01DX001 (ip), vehicle: steriod suspending solution 109 % of control | dose: 150.0 mg/kg/injection, schedule: Q01DX001 (ip), vehicle: steriod suspending solution 98 % of control | dose: 200.0 mg/kg/injection, schedule: Q01DX001 (ip), vehicle: steriod suspending solution 104 % of control | dose: 400.0 mg/kg/injection, schedule: Q01DX001 (ip), vehicle: steriod suspending solution 103 % of control

NC(=O)c1cc(=O)n(C2OC(CO)C(O)C2O)c2nc(N)nc(N)c12 (stereo not given)
inactive: dose: 12.5 mg/kg/injection, schedule: Q01DX005 (ip), vehicle: water 93 % of control | dose: 25.0 mg/kg/injection, schedule: Q01DX005 (ip), vehicle: water 90 % of control | dose: 50.0 mg/kg/injection, schedule: Q01DX005 (ip), vehicle: water 90 % of control | dose: 100.0 mg/kg/injection, schedule: Q01DX005 (ip), vehicle: water 90 % of control | dose: 200.0 mg/kg/injection, schedule: Q01DX005 (ip), vehicle: water 93 % of control

CC(=O)Nc1ncnc(NC(C)=O)c1N=O
inactive: [15] 93 % of control | dose: 200.0 mg/kg/injection, schedule: Q01DX001 (ip), vehicle: saline 102 % of control

c1ccc(-c2cscc2-c2ccccc2)cc1
inactive: dose: 25.0 mg/kg/injection, schedule: Q01DX009 (ip), vehicle: saline 105 % of control | [8] 96 % of control | [16] 100 % of control | [17] 97 % of control | [18] 98 % of control

O=c1[nH]c(=S)[nH]c(Cc2ccccc2)c1CCO
inactive: [9] 96 % of control | [11] 108 % of control | [13] 96 % of control

COC(=O)NC1CCCCC1I (stereo not given)
inactive: [9] 89 % of control | [19] 95 % of control | [11] 101 % of control | dose: 200.0 mg/kg/injection, schedule: Q04DX003 (ip), vehicle: saline with Tween-80 98 % of control | [13] 96 % of control | dose: 400.0 mg/kg/injection, schedule: Q04DX003 (ip), vehicle: saline with Tween-80 93 % of control

COc1cccc(/C=N\NC(=O)C(C)SC(C)C(=O)N/N=C/c2cccc(OC)c2)c1 (stereo not given)
inactive: dose: 100.0 mg/kg/injection, schedule: Q01DX009 (ip), vehicle: other 91 % of control | dose: 100.0 mg/kg/injection, schedule: Q04DX003 (ip), vehicle: other 89 % of control | dose: 200.0 mg/kg/injection, schedule: Q01DX009 (ip), vehicle: other 94 % of control | dose: 200.0 mg/kg/injection, schedule: Q04DX003 (ip), vehicle: other 89 % of control | dose: 400.0 mg/kg/injection, schedule: Q01DX009 (ip), vehicle: other 94 % of control | dose: 400.0 mg/kg/injection, schedule: Q04DX003 (ip), vehicle: other 96 % of control

Cc1n[nH]c(=S)[nH]c1=S
inactive: [19] 97 % of control

Reference: PubChem BioAssay AID248 (DTP/NCI, 2004)
